Patent publication US20230000808A1, “COMPOSITIONS AND METHODS EXCLUDING OR WITH REDUCED GLUTAMINE FOR THE TREATMENT OF HEMOGLOBINOPATHIES AND THALASSEMIAS” (AXCELLA HEALTH INC., priority 2019, published 2023)

What was measured:
Type in all cases: cell-based, human
[1] = test system: IL-6; assay: Secreted IL-6 in HLMVEC treated with TNF-α (FirePlex); conditions: HLMVEC + 0.5 ng/mL TNF-α, 24 h; amino acids 20x HMDB, Nac/Cit/Car 5 mM as bracketed
Method: (§1) Primary Human Lung Microvascular Endothelial Cells (HLMVEC; Lonza) were seeded at 6,000 cells per well in Endothelial Cell Growth Basal Medium-2 (Lonza) supplemented with Fetal Bovine Serum (FBS; Lonza), human EGF (Lonza), human VEGF (Lonza), R3-Insulin-like Growth Factor-1 (Lonza), ascorbic acid (Lonza), hydrocortisone (Lonza), human FGF-beta (Lonza), and gentamicin/amphotericin-b (Lonza) in a 96-well plate (Thermo Fisher). The cells were incubated for 45 minutes at room temperature, then incubated overnight at 37° C./5% CO2.
(§2) Following overnight incubation, cell were washed once with 150 μL of Dulbecco's phosphate buffered saline (DPBS; Gibco), and then treated with Endothelial Basal Medium MCB-131 (amino acid, glucose, sodium pyruvate, and phenol red free; US Biologicals) containing a defined custom amino acid concentration based on physiological concentrations in blood of patients with SCD (thus recapitulating observed metabolic imbalances such as the depletion of certain essential amino acids including arginine and aspartate and enrichment of certain non-essential amino acids including glutamate and asparagine), dialyzed FBS (Hyclone), human EGF (Lonza), human VEGF (Lonza), R3-Insulin-like Growth Factor-1 (Lonza), ascorbic acid (Lonza), hydrocortisone (Lonza), human FGF-beta (Lonza), and gentamicin/amphotericin-b (Lonza), glucose, 10 mM HEPES, sodium pyruvate, and sodium bicarbonate supplemented with one of the following: • a. PBS (vehicle control), • b. 0.5 ng/mL Tumor Necrosis Factor alpha (TNFα) and PBS, or; • c. 0.5 ng/mL TNF-α and amino acid treatments at 20× mean physiological concentrations in plasma based on values published in the Human Metabolome Database (HMDB) in PBS.
Supernatants were analyzed for IL-6 concentrations using a Human Cytokines FirePlex-HT Panel 1 kit (abcam) according to the manufacturer-supplied instructions. Particles were imaged on a high content imager (Molecular Devices), and results were interpolated from a standard curve with FirePlex Analysis Workbench Software (abcam) according manufacturer's recommendations.

[2] = test system: ICAM-1; assay: ICAM-1 cell integrated intensity in HLMVEC treated with TNF-α (immunofluorescence); conditions: for ICAM-1 Cell Integrated Intensity Median: HLMVEC + 0.5 ng/mL TNF-α, 24 h, amino acids 20x HMDB, Nac/Cit/Car 5 mM as bracketed
Method: as §1, §2
(§3) After 24 hours of treatment, cells were washed once with 150 μL of DPBS (Gibco), then fixed with 4% paraformaldehyde. Following fixation, cells were stained with anti-ICAM-1 [MEM-111] (mouse IgG2a anti-human; abcam) and anti-VCAM1 [1.4C3] (mouse IgG1, K anti-human; abcam) primary antibodies at 1000×, and 100× dilutions respectively. Cells were then stained with Goat anti-Mouse IgG2a Cross-Adsorbed Secondary Antibody, Alexa Fluor 594 (Invitrogen) and Goat anti-Mouse IgG1 Cross-Adsorbed Secondary Antibody, Alexa Fluor 647 (Invitrogen) secondary antibodies. Nuclei were stained with Hoechst 3342 (Life Technologies).
(§4) Antibody binding was detected by fluorescence microscopy using a high content imager (Molecular Devices). Images were analyzed using MetaXpress 6 software to determine the integrated intensity per cell for each wavelength corresponding to ICAM-1 or VCAM-1.

[3] = test system: VCAM-1; assay: VCAM-1 cell integrated intensity in HLMVEC treated with TNF-α (immunofluorescence); conditions: for VCAM-1 Cell Integrated Intensity Median: HLMVEC + 0.5 ng/mL TNF-α, 24 h, amino acids 20x HMDB, Nac/Cit/Car 5 mM as bracketed
Method: as §1, §2, §3, §4

[4] = test system: HLMVEC; assay: META-rank score, composite of VCAM1, ICAM1 and IL6 in the HLMVEC model; conditions: HLMVEC + TNF-α; lower score = more optimal; 20x HMDB / 5 mM
Method: The ability of single amino acids and combinations to simultaneously impact these phenotypes was measured by a META-rank score (Tables 17 and 18). META-rank score is a composite measure that considers the optimal impact on all 3 phenotypes (e.g. decrease VCAM1, ICAM1, and IL6) in the HLMVEC model.

[5] = 0.5 ng/mL TNF-α, amino acids at 20× HMDB, 24 hours

| SMILES | Secreted IL6 Median [1] | ICAM-1 Cell Integrated Intensity Median [2] | VCAM-1 Cell Integrated Intensity Median [3] | Metarank (Table 17) [4] | Meta-Rank (Table 18) [4] | TNFα induced ICAM-1 expression levels in HLMVEC [2, 5] | VCAM-1 expression in HLMVEC [3, 5] |
| --- | --- | --- | --- | --- | --- | --- | --- |
| N=C(N)NCCC[C@H](N)C(=O)O [Arg] | −0.224 | −0.046 | −0.001 | 19 | – | – | – |
| NC(=O)CC[C@H](N)C(=O)O [Gln] | 0.043 | 0.237 | 0.372 | 28 | 29 | – | – |
| NCC(=O)O [Gly, glycine] | −0.010 | −0.261 | −0.298 | 26 | 3 | reduced levels of ICAM-1 expression to a lesser extent | greatly reduced |
| N[C@@H](Cc1c[nH]cn1)C(=O)O [His] | −0.198 | 0.084 | 0.109 | 22 | 18.5 | – | – |
